Measurements as given in US20240148821A1, “PHARMACEUTICAL USE OF CYCLIC PEPTIDE COMPOUND” (CHUGAI SEIYAKU KABUSHIKI KAISHA, priority 2021, published 2024).
Numbered stars: 1 amine (or outer) side, 2 acyl side, 3 side chain; on linkers, the order of the positions; unused ones are H or OH. Bridge positions count the residues as written; N and C are the ends. Square brackets hold non-standard residues; d marks the D form. Peptide text beside a SMILES is read from it. * marks the point of attachment. hPhe(3,5-F2-4-CF3) = N[C@@H](CCc1cc(F)c(C(F)(F)F)c(F)c1)C(=O)O; hPhe(3-Cl-4-CF3) = N[C@@H](CCc1ccc(C(F)(F)F)c(Cl)c1)C(=O)O; NMePhe(4-CF3) = CN[C@@H](Cc1ccc(C(F)(F)F)cc1)C(=O)O; hPhe(4-CF3) = N[C@@H](CCc1ccc(C(F)(F)F)cc1)C(=O)O; Pro(cis-4-Ph) = O=C(O)[C@@H]1C[C@H](c2ccccc2)CN1; NMePhe(3-Cl) = CN[C@@H](Cc1cccc(Cl)c1)C(=O)O; NMePhe(4-Cl) = CN[C@@H](Cc1ccc(Cl)cc1)C(=O)O; NMePhe(4-Me) = CN[C@@H](Cc1ccc(C)cc1)C(=O)O; NMedβ3hAla = C[C@H](CC(=O)[*:2])N(C)[*:1]; NGly(CH2(3-pyridyl)) = O=C(O)CNCc1cccnc1; NMeGly(cPent) = CN[C@H](C(=O)O)C1CCCC1; NMeCha = CN[C@@H](CC1CCCCC1)C(=O)O; Hyp = O=C(O)[C@@H]1C[C@@H](O)CN1; NEtLeu = CCN[C@@H](CC(C)C)C(=O)O; NMeChg = CN[C@H](C(=O)O)C1CCCCC1; NMeD = CN[C@@H](CC(=O)O)C(=O)O; Gly(N-CH2CH2OH) = O=C(O)CNCCO; NMeL = CN[C@@H](CC(C)C)C(=O)O; Cba = N[C@@H](CC1CCC1)C(=O)O; Chg = N[C@H](C(=O)O)C1CCCCC1; NMeV = CN[C@H](C(=O)O)C(C)C; d(β3hA) = C[C@@H](N)CC(=O)O; Azetidin(1-yl) = C1CN(*)C1; NMeAbu = CC[C@H](NC)C(=O)O; NMeA = CN[C@@H](C)C(=O)O; Piperidide = C1CCN(*)CC1; dNMeA = CN[C@H](C)C(=O)O; Ac5c = NC1(C(=O)O)CCCC1; Aze = O=C(O)[C@@H]1CCN1; Sar = CNCC(=O)O

biological target: protein-protein interaction between Kras and SOS1 (biotin-tagged human Kras loaded with GDP, His-tagged human SOS1) (Homo sapiens (Human), UniProt P01116, G12D); assay: Protein-protein interaction inhibition between Kras and SOS1 (KrasG12D-SOS PPI) using AlphaScreen; format: biochemical; conditions: AlphaScreen; biotin-tagged human Kras loaded with GDP, His-tagged human SOS1; read-out: KRAS G12D-SOS PPI IC50;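 further: kras produced in E. coli, Ni-coupled donor beads and streptavidin acceptor beads, excitation 680 nm with emission detected at 520–620 nm via singlet oxygen transfer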

SMILES | IC50
CC[C@H](C)[C@@H]1NC(=O)[C@H](CC(C)C)N(C)C(=O)C[C@@H](C(=O)N2CCCCC2)N(C)C(=O)[C@H](C2CCCCC2)N(C)C(=O)C2(CCCC2)NC(=O)CN(Cc2cccnc2)C(=O)[C@H](CCc2ccc(C(F)(F)F)c(Cl)c2)NC(=O)CN(C)C(=O)[C@H](CC2CCCCC2)N(C)C(=O)CN(C)C(=O)CN(C)C1=O [Compound 2026] ([NMeL]I[Sar][Sar][NMeCha][Sar][hPhe(3-Cl-4-CF3)][NGly(CH2(3-pyridyl))][Ac5c][NMeChg][NMeD]-Piperidide; lactam N-11 (inferred); C-terminus assumed) | 1.3 nM
CC[C@H](C)[C@@H]1NC(=O)[C@H](CC(C)C)N(C)C(=O)C[C@@H](C(=O)N2CCCCC2)N(C)C(=O)[C@H](C2CCCCC2)N(C)C(=O)C2(CCCC2)NC(=O)CN(CCO)C(=O)[C@H](CCc2ccc(C(F)(F)F)c(Cl)c2)NC(=O)CN(C)C(=O)[C@H](CC2CCCCC2)N(C)C(=O)CN(C)C(=O)CN(C)C1=O [Compound 2037, (11S,17S,26S,29S,33S,36S)-11-[2-[3-chloro-4-(trifluoromethyl)phenyl]ethyl]-36-cyclohexyl-17-(cyclohexylmethyl)-9-(2-hydroxyethyl)-29-isobutyl-15,18,21,24,30,34,37-heptamethyl-26-[(1S)-1-methylpropyl]-33-(piperidine-1-carbonyl)-6,9,12,15,18,21,24,27,30,34,37-undecazaspiro[4.33]octatriacontane-7,10,13,16,19,22,25,28,31,35,38-undecone] ([NMeL]I[Sar][Sar][NMeCha][Sar][hPhe(3-Cl-4-CF3)][Gly(N-CH2CH2OH)][Ac5c][NMeChg][NMeD]-Piperidide; lactam N-11) | 0.58 nM
CCO[C@@H]1C[C@H]2C(=O)NC3(CCCC3)C(=O)N(C)[C@@H](C3CCCCC3)C(=O)N(C)[C@H](C)CC(=O)N(C)[C@@H](CC(C)C)C(=O)N[C@@H]([C@@H](C)CC)C(=O)N(C)[C@@H](C)C(=O)N3CC[C@H]3C(=O)N(C)[C@@H](Cc3ccc(C(F)(F)F)cc3)C(=O)N(C)CC(=O)N[C@@H](CCc3cc(F)c(C(F)(F)F)c(F)c3)C(=O)N2C1 [Compound 486] (cyclo([Ac5c][NMeChg][NMedβ3hAla][NMeL]I[NMeA][Aze][NMePhe(4-CF3)][Sar][hPhe(3,5-F2-4-CF3)][Hyp](Et))) | 4.8 nM
CC[C@H](C)[C@@H]1NC(=O)[C@H](C)N(C)C(=O)C[C@@H](C)NC(=O)[C@H](C(C)C)N(C)C(=O)C2(CCCC2)NC(=O)[C@@H]2CCCN2C(=O)[C@H](CCc2ccc(C(F)(F)F)c(Cl)c2)NC(=O)[C@@H](C)N(C)C(=O)[C@H](CC2CCCCC2)N(C)C(=O)[C@@H]2CCN2C(=O)[C@H](CC)N(C)C1=O [Compound 2012] (cyclo([Ac5c][NMeV][d(β3hA)][NMeA]I[NMeAbu][Aze][NMeCha][dNMeA][hPhe(3-Cl-4-CF3)]P)) | 200 nM
CC(C)C[C@H]1C(=O)N[C@@H](C2CCCCC2)C(=O)N(C)[C@@H](C)C(=O)N2CC[C@H]2C(=O)N(C)[C@@H](CC2CCCCC2)C(=O)N(C)CC(=O)N[C@@H](CCc2ccc(C(F)(F)F)c(Cl)c2)C(=O)N2CCC[C@H]2C(=O)NC2(CCCC2)C(=O)N(C)[C@@H](C(C)C)C(=O)N(C)[C@H](C(=O)N2CCCCC2)CC(=O)N1C [Compound 642] ([NMeL][Chg][NMeA][Aze][NMeCha][Sar][hPhe(3-Cl-4-CF3)]P[Ac5c][NMeV][NMeD]-Piperidide; lactam N-11) | 54 nM
CC[C@H](C)[C@@H]1NC(=O)[C@H](C(C)C)N(C)C(=O)C[C@@H](C)NC(=O)[C@H](CC(C)C)N(C)C(=O)C2(CCCC2)NC(=O)[C@H](CC(C)C)N(C)C(=O)[C@H](CCc2ccc(C(F)(F)F)c(Cl)c2)NC(=O)CN(C)C(=O)[C@H](Cc2ccc(Cl)cc2)N(C)C(=O)CN(C)C(=O)CN(C)C1=O [Compound 1014] (cyclo([Ac5c][NMeL][d(β3hA)][NMeV]I[Sar][Sar][NMePhe(4-Cl)][Sar][hPhe(3-Cl-4-CF3)][NMeL])) | 13 nM
CC[C@H](C)[C@@H]1NC(=O)[C@H](C)N(C)C(=O)C[C@@H](C(=O)N2CCCCC2)N(C)C(=O)[C@H](C(C)C)N(C)C(=O)C2(CCCC2)NC(=O)[C@H](Cc2cccc(Cl)c2)N(C)C(=O)[C@H](CCc2ccc(C(F)(F)F)c(Cl)c2)NC(=O)CN(C)C(=O)[C@H](CC2CCCCC2)N(C)C(=O)CN(C)C(=O)CN(C)C1=O [Compound 282] ([NMeA]I[Sar][Sar][NMeCha][Sar][hPhe(3-Cl-4-CF3)][NMePhe(3-Cl)][Ac5c][NMeV][NMeD]-Piperidide; lactam N-11) | 94 nM
CC[C@H](C)[C@@H]1NC(=O)[C@H](CC(C)C)N(CC)C(=O)C[C@@H](C(=O)N2CCC2)N(C)C(=O)[C@H](C2CCCC2)N(C)C(=O)C2(CCCC2)NC(=O)[C@@H]2CCCN2C(=O)[C@H](CCc2ccc(C(F)(F)F)c(Cl)c2)NC(=O)CN(C)C(=O)[C@H](CC2CCCCC2)N(C)C(=O)[C@@H]2CCN2C(=O)[C@H](C)NC1=O [Compound 1262] ([NEtLeu]IA[Aze][NMeCha][Sar][hPhe(3-Cl-4-CF3)]P[Ac5c][NMeGly(cPent)][NMeD]-{Azetidin(1-yl)}; lactam N-11) | 1.3 nM
CC[C@H](C)[C@@H]1NC(=O)[C@H](C(C)C)N(C)C(=O)C[C@@H](C)NC(=O)[C@H](C(C)C)N(C)C(=O)C2(CCCC2)NC(=O)[C@H](CC(C)C)N(C)C(=O)[C@H](CCc2ccc(C(F)(F)F)c(Cl)c2)NC(=O)CN(C)C(=O)[C@H](Cc2ccc(Cl)cc2)N(C)C(=O)CN(C)C(=O)CN(C)C1=O [Compound 1069] (cyclo([Ac5c][NMeV][d(β3hA)][NMeV]I[Sar][Sar][NMePhe(4-Cl)][Sar][hPhe(3-Cl-4-CF3)][NMeL])) | 17 nM
CC[C@H](C)[C@@H]1NC(=O)[C@H](C)N(C)C(=O)C[C@@H](C)NC(=O)[C@H](CC(C)C)N(C)C(=O)[C@H](C(C)C)N(C)C(=O)[C@H](CC(C)C)N(C)C(=O)[C@H](CCc2ccc(C(F)(F)F)cc2)NC(=O)CN(C)C(=O)[C@H](Cc2ccc(Cl)cc2)N(C)C(=O)CN(C)C(=O)CN(C)C1=O [Compound 588] (cyclo(I[Sar][Sar][NMePhe(4-Cl)][Sar][hPhe(4-CF3)][NMeL][NMeV][NMeL][d(β3hA)][NMeA])) | 360 nM
CC[C@H](C)[C@@H]1NC(=O)[C@H](CC(C)C)N(CC)C(=O)C[C@@H](C)NC(=O)[C@H](C2CCCC2)N(C)C(=O)C2(CCCC2)NC(=O)[C@@H]2CCCN2C(=O)[C@H](CCc2ccc(C(F)(F)F)c(Cl)c2)NC(=O)CN(C)C(=O)[C@H](Cc2ccc(C)cc2)N(C)C(=O)[C@@H]2CCN2C(=O)[C@H](C)N(C)C1=O [Compound 531] (cyclo([Ac5c][NMeGly(cPent)][d(β3hA)][NEtLeu]I[NMeA][Aze][NMePhe(4-Me)][Sar][hPhe(3-Cl-4-CF3)]P)) | 1.6 nM
CC[C@H](C)[C@@H]1NC(=O)[C@H](CC(C)C)N(C)C(=O)C[C@@H](C)NC(=O)[C@H](C(C)C)N(C)C(=O)C2(CCCC2)NC(=O)[C@@H]2CCCN2C(=O)[C@H](CCc2ccc(C(F)(F)F)c(Cl)c2)NC(=O)CN(C)C(=O)[C@H](CC2CCCCC2)N(C)C(=O)[C@@H]2CCN2C(=O)[C@@H]2CCN2C1=O [Compound 181] (cyclo([Ac5c][NMeV][d(β3hA)][NMeL]I[Aze][Aze][NMeCha][Sar][hPhe(3-Cl-4-CF3)]P)) | 130 nM
CC[C@H](C)[C@@H]1NC(=O)[C@H](CC(C)C)N(C)C(=O)C[C@@H](C)NC(=O)[C@H](C2CCCC2)N(C)C(=O)C2(CCCC2)NC(=O)[C@@H]2CCCN2C(=O)[C@H](CCc2ccc(C(F)(F)F)c(Cl)c2)NC(=O)CN(C)C(=O)[C@H](CC2CCCCC2)N(C)C(=O)[C@@H]2CCN2C(=O)CN(C)C1=O [Compound 1499] (cyclo([Ac5c][NMeGly(cPent)][d(β3hA)][NMeL]I[Sar][Aze][NMeCha][Sar][hPhe(3-Cl-4-CF3)]P)) | 19 nM
CC[C@H](C)[C@@H]1NC(=O)[C@H](CC(C)C)N(C)C(=O)C[C@@H](C(=O)N2CCCCC2)N(C)C(=O)[C@H](C(C)C)N(C)C(=O)C2(CCCC2)NC(=O)[C@@H]2CCCN2C(=O)[C@H](CCc2ccc(C(F)(F)F)c(Cl)c2)NC(=O)CN(C)C(=O)[C@H](CC2CCCCC2)N(C)C(=O)[C@@H]2CCN2C(=O)[C@H](CC)N(C)C1=O [Compound 1569] ([NMeL]I[NMeAbu][Aze][NMeCha][Sar][hPhe(3-Cl-4-CF3)]P[Ac5c][NMeV][NMeD]-Piperidide; lactam N-11) | 16 nM
CC[C@H](C)[C@@H]1NC(=O)[C@H](CC(C)C)N(C)C(=O)C[C@@H](C(=O)N2CCCCC2)N(C)C(=O)[C@H](C2CCCCC2)N(C)C(=O)C2(CCCC2)NC(=O)[C@@H]2C[C@H](c3ccccc3)CN2C(=O)[C@H](CCc2ccc(C(F)(F)F)c(Cl)c2)NC(=O)CN(C)C(=O)[C@H](CC2CCCCC2)N(C)C(=O)[C@@H]2CCN2C(=O)CN(C)C1=O [Compound 960] ([NMeL]I[Sar][Aze][NMeCha][Sar][hPhe(3-Cl-4-CF3)][Pro(cis-4-Ph)][Ac5c][NMeChg][NMeD]-Piperidide; lactam N-11) | 7.9 nM
CCO[C@@H]1C[C@H]2C(=O)NC3(CCCC3)C(=O)N(C)[C@@H](C3CCCC3)C(=O)N(C)[C@H](C)CC(=O)N(C)[C@@H](CC(C)C)C(=O)N[C@@H]([C@@H](C)CC)C(=O)N(C)CC(=O)N(C)CC(=O)N(C)[C@@H](CC3CCCCC3)C(=O)N(C)CC(=O)N[C@@H](CCc3cc(F)c(C(F)(F)F)c(F)c3)C(=O)N2C1 [Compound 74] (cyclo([Ac5c][NMeGly(cPent)][NMedβ3hAla][NMeL]I[Sar][Sar][NMeCha][Sar][hPhe(3,5-F2-4-CF3)][Hyp](Et))) | 7.2 nM
CC(C)C[C@H]1C(=O)N[C@@H](CC2CCC2)C(=O)N(C)[C@@H](C)C(=O)N2CC[C@H]2C(=O)N(C)[C@@H](CC2CCCCC2)C(=O)N(C)CC(=O)N[C@@H](CCc2ccc(C(F)(F)F)c(Cl)c2)C(=O)N2CCC[C@H]2C(=O)NC2(CCCC2)C(=O)N(C)[C@@H](C(C)C)C(=O)N(C)[C@H](C(=O)N2CCCCC2)CC(=O)N1C [Compound 733] ([NMeL][Cba][NMeA][Aze][NMeCha][Sar][hPhe(3-Cl-4-CF3)]P[Ac5c][NMeV][NMeD]-Piperidide; lactam N-11) | 51 nM
